Experimental data from US5405837A, “Method for the treatment of neoplastic disease utilizing tiazofurin and ribavirin” (Indiana University Foundation, priority 1993, dated 1995).

Tests used:
IMP DH = IMP DH activity in ACI/N rats bearing s.c. transplanted hepatoma 3924A after tiazofurin and subsequent ribavirin; format: in vivo, rat
Experimental: In this example, ACI/N rats bearing s.c. transplanted hepatoma 3924A were administered daily i.p. injections of 150 mg/kg tiazofurin (trade name Tiazole, Viratek, Inc.) for two days. The rats were then divided into two groups: one received daily i.p. injections of saline, the other received 100 mg/kg ribavirin (trade name Virazole, Viratek, Inc.) for an additional two days.
Tiazofurin reduced the IMP DH activity to 10% and ribavirin maintained the inhibition of IMP DH activity at 20-30% of the control values. The IMP DH activity in the saline-treated rats returned to the untreated levels. (see FIGS. 1 through 5).

rat bone marrow = test: Ribavirin alone versus tiazofurin, IMP DH activity and cellularity in rat bone marrow (FIGS. 1 and 2); format: in vivo; settings: at lower doses
Excerpt: (see FIGS. 1 and 2). […] Bekesi, J. G. et al., Treatment of Spontaneous Leukemia in AKR Mice with Chemotherapy, Immunotherapy, or Interferon, Cancer Research 36:631-639 (1976).
FIG. 1 is a graph of experimental data showing the effect of Tiazofurin and subsequent Ribavirin treatment on IMP DH activity in rat bone marrow.
FIG. 2 is a graph of experimental data showing the effect of Tiazofuran and subsequent Ribavirin treatment on cellularity in rat bone marrow.

spontaneous leukemia = settings: in some cases; Cancer Research 36:631-639 (1976); cited from earlier work

SMILES | IMP DH activity, % of the control values (IMP DH; 100 mg/kg ribavirin daily i.p. for two more days after two days of tiazofurin 150 mg/kg) | effectiveness when administered alone (rat bone marrow) | antitumor effect (spontaneous leukemia) | IMP DH activity (IMP DH; 150 mg/kg tiazofurin daily i.p. for two days, ACI/N rats with hepatoma 3924A)
NC(=O)c1ncn([C@@H]2O[C@H](CO)[C@@H](O)[C@H]2O)n1 [ribavirin, 1-β-D-ribofuranosyl-1,2,4-triazole-3-carboxamide] | 20-30% | less effective than tiazofurin | little or no antitumor effect | –
NC(=O)c1csc([C@@H]2O[C@H](CO)[C@@H](O)[C@H]2O)n1 [tiazofurin, 2-β-D-ribofuranosylthiazole-4-carboxamide] | – | – | – | 10%
